Tested on: rat cytochrome P450 3A
Conditions: for % inhibition of cyclosporine metabolism, repeat 0.0001(SD) (Table 2) / % inhibition of cyclosporine metabolism, 0.0001% (Table 2): oil ingredient 0.0001 wt. %; for % inhibition of cyclosporine metabolism, repeat 0.0001(SD) (Table 2): repeat assay(s), SD in parentheses; for % inhibition of cyclosporine metabolism, 0.0001% (Table 2) / % inhibition of cyclosporine metabolism, 0.001% (Table 2) / % inhibition of cyclosporine metabolism, 0.01% (Table 2): from solvent baseline; for % inhibition of cyclosporine metabolism, 0.001% (Table 2): oil ingredient 0.001 wt. %; for % inhibition of cyclosporine metabolism, 0.01% (Table 2): oil ingredient 0.01 wt. %

SMILES	% inhibition of cyclosporine metabolism, 0.0001% (Table 2) [%]	% inhibition of cyclosporine metabolism, 0.001% (Table 2) [%]	% inhibition of cyclosporine metabolism, 0.01% (Table 2) [%]	further results
CC12CCC(CC1=O)C2(C)C (racemic) [Camphor-(±), 1,7,7-Trimethylbicyclo [2.2.1] heptan-2-one]				% inhibition of cyclosporine metabolism, repeat 0.001 (SD) (Table 2) (microsomes): 53(3) %
C=CC(C)(O)CCC=C(C)C (racemic) [Linalool-(±), 3,7-Dimethyl-1,6-octadien-3-ol]	41	72.0	85	% inhibition of cyclosporine metabolism, repeat 0.0001(SD) (Table 2): -7(9) %
CCC=CCC1C(=O)CCC1CC(=O)OC (racemic) [Methyl Jasmonate-(±), Methyl-3-oxo-2-(2-pentenyl)-cyclopentane acetate]	-27	65		
C=C1C2CCC(C2)C1(C)C (single isomer, unassigned) [Camphene-(+), 2,2-Dimethyl-3-methylenebicyclo[2.2.1]heptane]	-49	12.4		
C=C(C)C1CC=C(C)C(O)C1 (single isomer, unassigned) [Carveol-(-), p-Mentha-6,8-dien-2-ot]	2	60		
CC=C(C)C=CC=C(C)C [Allo Ocimene, 2,6-Dimethyl-2,4,6-octatriene]	6	22		
C/C=C/c1ccc(OC)cc1 [Anethole, trans-, 4-Propenylanisole]		53	100	
O=C(/C=C/c1ccccc1)OCc1ccccc1 [Benzyl Cinnamate, Benzyl 3-phenylpropenoic acid]	7	-45		
COc1cc(CNC(=O)CCCC/C=C/C(C)C)ccc1O [Capsaicin, trans-8-Methyl-N-vanillyl-6 nonenamide]	27	68		
Cc1ccc(C(C)C)cc1O [Carvacrol, 5-isoPropyl-2-methylphenol]	11	93	97	
C=C(C)[C@@H]1CC=C(C)C(=O)C1 [Carvone-(R)-(-), p-Mentha-6,8-dien-2-one]	27	69	100	
C=C(C)[C@H]1CC=C(C)C(=O)C1 [Carvone-(S)-(+), p-Mentha-6,8-dien-2-one]	30	70.5		
C=C1CC/C=C(\C)CC[C@@H]2[C@@H]1CC2(C)C [Caryophyllene, trans-(-), β Caryophyllene]	26	85		
O=C/C=C/c1ccccc1 [Cinnamic Aldehyde, trans-, 3-Phenylpropenaldehyde]		29.0	78	
CC(C)=CCC/C(C)=C/C=O [Citral]	44	54	99	
CC(C)=CCCC(C)CCO (stereo not drawn) [Citronellol-(DL)-(β), 3,7-Dimethyl-6-octen-1-ol]	41	86	95	% inhibition of cyclosporine metabolism, repeat 0.0001(SD) (Table 2): 35(4) %
C=CCc1ccc(OC)cc1 [Estragole, 4-Allylanisole]	7	69.2	100	
CCOC(=O)/C=C/c1ccccc1 [Ethyl Cinnamate, trans-, Ethyl 3-phenylpropenoic acid]	-13	-16		
CCOc1cc(C=O)ccc1O [Ethyl Vanillin, 3-Ethoxy-4-hydroxybenzaledhyde]			58	

SMILES	% inhibition of cyclosporine metabolism, 0.0001% (Table 2) [%]	% inhibition of cyclosporine metabolism, 0.001% (Table 2) [%]	% inhibition of cyclosporine metabolism, 0.01% (Table 2) [%]	further results
C=CCc1ccc(O)c(OC)c1 [Eugenol, 4-Allyl-2-methoxyphenol]	9.8	66	100	
CC(C)=CCC/C(C)=C/CC/C(C)=C/CO [Farnesol. trans-, trans-, 3,7,11-Trimethyl-2,6,10-dodecatrien-1-ol]	49	82		
CC1(C)[C@H]2CC[C@](C)(C2)[C@H]1O [Fenchol-(1R)-endo-(+), 1,3,3-Trimethylbicyclo [2.2.1] heptan-2-ol]	18	74	100	
CC1(C)C(=O)[C@]2(C)CC[C@H]1C2 [Fenchone-(1R)-(-), 1,3,3-Trimethylbicyclo [2.2.1] heptan-2-one]	14	38		
CC(=O)OC/C=C(\C)CCC=C(C)C [Geranyl Acetate, trans-3,7-Dimethyl-2,6-octadien-1-yl acetate]		51.5	73	
CC/C=C\CC1=C(C)CCC1=O [Jasmone, cis-, 3-Methyl-2-(2-pentenyl)-2-cyclopenten-1-one]	16.0	68		
CC(=O)N1CCN(c2ccc(OCC3COC(Cn4ccnc4)(c4ccc(Cl)cc4Cl)O3)cc2)CC1 (stereo not drawn) [Ketoconazole, reference compound]				% inhibition of cyclosporine metabolism, reference compound at 0.000001% (Table 3) (0.000001 %): 8%; % inhibition of cyclosporine metabolism, reference compound at 0.000005% (Table 3) (0.000005 %): 20%; % inhibition of cyclosporine metabolism, reference compound at 0.00001% (Table 3) (0.00001 %): 42%; % inhibition of cyclosporine metabolism, reference compound at 0.00005% (Table 3) (0.00005 %): 100%
C=C(C)[C@H]1CC=C(C)CC1 [Limonene-(R)-(+), p-Mentha-1,8-diene]		20	84	
C=C(C)[C@@H]1CC=C(C)CC1 [Limonene-(S)-(-), p-Mentha-1,8-diene]		30	82.3	
C=CC(C)(CCC=C(C)C)OC(C)=O (stereo not drawn) [Linalyl Acetate, 3,7-Dimethyl-1,6-octadien-3-yl acetate]		55.8	100	
COC(=O)c1ccccc1N [Mcthyl Anthranilate, Methyl 2-aminobenzoate]	-7	23		
CC(C)[C@@H]1CC[C@@H](C)CC1=O [Menthone-(-), p-Menthan-3-one]	14	52		
C=CC(=C)CCC=C(C)C [Myrcene-β, 7-Methyl-3-methylene-1,6-octadiene]	0	13		
C=C1CC[C@H]2C[C@@H]1C2(C)C [Pinene-(1S)-(-)-β, 6,6-Dimethyl-2-methylenebicyclo[3.1.1]heptane]	-10	60	88	
CC(C)=C1CC[C@@H](C)CC1=O [Pulegone-(R)-(+), p-Menth-4(8)-en-3-one]	-17	31		
CC1=CCC(O)(C(C)C)CC1 (stereo not drawn) [Terpinen-4-ol, p-Menth-1-en-4-ol]	3.81	80	100	
CC1=CC=C(C(C)C)CC1 [Terpinene-α, p-Mentha-1,3-diene]	-6	28		
CC1=CCC(C(C)(C)O)CC1 (stereo not drawn) [Terpineol-α, p-Menth-1-en-8-ol]	13.4	86	100	
